Test results reported in PubChem BioAssay (NCI).
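Protocol summary: plate cells (96-well), add compound at 5 concentrations, incubate 48 h, interpolate endpoints linearly. TGI: concentration producing complete growth inhibition.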

How the values were obtained:
Experiment in all cases: inhibition of tumour cell growth, NCI panel, 48 h
[1] = system: OVCAR-5 ovarian
[2] = system: HOP-92 NSCLC
[3] = system: NCI-H522 lung
[4] = system: HOP-62 NSCLC
[5] = system: MDA-N
[6] = system: NCI/ADR-RES ovarian
[7] = system: MDA-MB-231 breast
[8] = system: CAKI-1 renal
[9] = system: OVCAR-8 ovarian
[10] = system: IGROV1 ovarian
[11] = system: RXF 393 renal

Compound | TGI [1] | TGI [2] | TGI [3] | TGI [4] | TGI [5] | TGI [6] | TGI [7] | TGI [8] | TGI [9] | TGI [10] | TGI [11]
CCn1c2c(c3c(C(=O)OC)c(O)ccc31)C(=O)c1ccccc1C2=O | 42.5 µM | 32.8 µM | 23.8 µM | 30.1 µM | 29.9 µM | 66 µM | 51.5 µM | 94.6 µM | 30.7 µM | 15.3 µM | 52.6 µM
COC(=O)/C=C1/OC(c2ccccc2)=C(Cl)C1=O | 35.6 µM | 42.7 µM | 33 µM | > 58 µM | 43 µM | 61.9 µM | 36 µM | 32.7 µM | 48.7 µM | 55.8 µM | 35.9 µM
CC1(C)N=C(N)N=C(N)N1c1cccc(CSc2ccccc2)c1 | > 100 µM | > 100 µM | 27.3 µM | > 100 µM | > 100 µM | > 100 µM | > 100 µM | > 100 µM | > 100 µM | 25 µM | 95.9 µM
COC1CCC(OC2CC(C3(C)CCC4(CC(O)C(C)C(C(C)/C=C(\C)C(=O)C(C)CC(C)C(=O)O)O4)O3)OC3(OC(C4OC(O)(CO)C(C)CC4C)CC3C)C2C)OC1C (configuration not stated) | 13.1 µM | 2.77 µM | 0.26 µM | 2.87 µM | 0.549 µM | 6.65 µM | 0.517 µM | 2.21 µM | 1.87 µM | 16.2 µM | 0.225 µM
c1ccc(N=NNNc2ccc(-c3nc4ccccc4[nH]3)cc2)cc1 | > 100 µM | > 100 µM | > 100 µM | > 100 µM | > 100 µM | 75.1 µM | > 100 µM | > 100 µM | > 100 µM | > 100 µM | 55.8 µM
O=C(CSC1=NCCN1)c1ccccc1 | > 100 µM | > 100 µM | > 100 µM | > 100 µM | > 100 µM | > 100 µM | > 100 µM | > 100 µM | > 100 µM | > 100 µM | > 100 µM
CCCCCc1c(CCCC)c(=O)[nH]c2cc(CNCC(OC)OC)ccc12 | 28 µM | 16.5 µM | 34.6 µM | 33.5 µM | 24 µM | 26.9 µM | 29.3 µM | 24.6 µM | 32 µM | 29.6 µM | 27.1 µM
